Data from patent publication US11426385B2, “Methods of improving cancer chemotherapy” (THE REGENTS OF THE UNIVERSITY OF CALIFORNIA, priority 2017, dated 2022).

How the values were obtained:
[1] = system: COX-1 and COX-2; details: cited from earlier work
[2] = system: COX-1; assay: COX-1 inhibitory activity (Table 3); format: biochemical; set-up: dose or concentration left out as unconfirmed
[3] = system: bladder cancer PDX BL0269; assay: tumor growth in NSG-PDX bladder cancer mouse model BL0269; format: in vivo, NSG mice
Procedure: Materials and Supplies. Bladder cancer subject-derived xenograft (PDX) models were provided by The Jackson Laboratory (JAX, Bar Harbor, Me.). […] All experiments utilized PDX models within the first five passages. […] Gemcitabine was purchased from LC Laboratories (Woburn, Mass.). […] The cell lines have not been tested and authenticated by the authors.
PDX bladder cancer. NSG PDX studies were performed at the University of California Davis with IACUC approval. […] Gemcitabine was dissolved in 0.9% saline and administered at a dose of 150 mg/kg (IP, weekly) for 4 weeks. Animal weight and tumor size were measured twice per week. […] The percentage of tumor growth inhibition (TGI) was calculated as follows; 100%×(1−[(V^treated(final day)−V^treated(initial day))/(V^control(final day)−V^control(initial day))]), where V is tumor volume.
Statistics. Data are presented as mean±standard error of the mean (SEM) or mean±standard deviation (SD). Group comparisons were carried out using one-way analysis of variance or Student's t test. Survival analysis was performed using the Kaplan-Meier method. A p value of less than 0.05 was considered statistically significant.

SMILES	COX-1 (% inhibition) [2] [%]	other results
CC(=O)Oc1ccccc1C(=O)O [Aspirin, aspirin]	–	COX-2 (IC50)/COX-1 (IC50) ratio [1]: 0.32
CS(=O)(=O)c1ccc(-n2nc(CNC(=O)NC34CC5CC(CC(C5)C3)C4)cc2-c2ccccc2)cc1 [compound 1860, 1-Adamantan-1-yl-3-[1-(4-methanesulfonyl-phenyl)-5-phenyl-1H-pyrazol-3-ylmethyl]-urea]	12.7	–
CS(=O)(=O)c1ccc(-n2nc(CNC(=O)Nc3cccc(C(F)(F)F)c3)cc2-c2ccccc2)cc1 [compound 1861, 1-[1-(4-Methanesulfonyl-phenyl)-5-phenyl-1H-pyrazol-3-ylmethyl]-3-(3-trifluoromethyl-phenyl)-urea]	7.8	–
CS(=O)(=O)c1ccc(-n2nc(CCCNC(=O)Nc3cccc(C(F)(F)F)c3)cc2-c2ccccc2)cc1 [compound 1862, 1-{3-[1-(4-Methanesulfonyl-phenyl)-5-phenyl-1H-pyrazol-3-yl]-propyl}-3-(3-trifluoromethyl-phenyl)-urea]	6.4	–
CC(C)(C)c1cc(CNC(=O)Nc2cccc(C(F)(F)F)c2)nn1-c1ccc(S(C)(=O)=O)cc1 [compound 2106, 1-[5-tert-Butyl-1-(4-methanesulfonyl-phenyl)-1H-pyrazol-3-ylmethyl]-3-(3-trifluoromethyl-phenyl)-urea]	2.4	–
NS(=O)(=O)c1ccc(-n2nc(CNC(=O)Nc3cccc(C(F)(F)F)c3)cc2-c2ccccc2)cc1 [compound 2107, 4-{5-Phenyl-3-[3-(3-trifluoromethyl-phenyl)-ureidomethyl]-pyrazol-1-yl}-benzenesulfonamide]	16.9	–
NS(=O)(=O)c1ccc(-n2nc(NC(=O)Nc3cccc(C(F)(F)F)c3)cc2-c2ccccc2)cc1 [compound 2121, 4-{5-Phenyl-3-[3-(3-trifluoromethyl-phenyl)-ureido]-pyrazol-1-yl}-benzenesulfonamide]	33.9	–
Cc1ccc(-c2cc(CCCNC(=O)Nc3cccc(C(F)(F)F)c3)nn2-c2ccc(S(N)(=O)=O)cc2)cc1 [compound 2152, 4-(5-p-Tolyl-3-{3-[3-(3-trifluoromethyl-phenyl)-ureido]-propyl}-pyrazol-1-yl)-benzenesulfonamide]	12.1	–
NS(=O)(=O)c1ccc(-n2nc(CCCNC(=O)Nc3ccccc3)cc2-c2ccccc2)cc1 [compound 2245, 4-{5-Phenyl-3-[3-(3-phenyl-ureido)-propyl]-pyrazol-1-yl}-benzenesulfonamide]	15.8	–
NS(=O)(=O)c1ccc(-n2nc(CCCNC(=O)Nc3cccc(C(F)(F)F)c3)cc2-c2ccccc2)cc1 [compound 2246, 4-(5-Phenyl-3-{3-[3-(3-trifluoromethyl-phenyl)-ureido]-propyl}-pyrazol-1-yl)-benzenesulfonamide]	27.2	–
NS(=O)(=O)c1ccc(-n2nc(CCCNC(=O)NC3CCCCCC3)cc2-c2ccccc2)cc1 [compound 2247, 4-{3-[3-(3-Cycloheptyl-ureido)-propyl]-5-phenyl-pyrazol-1-yl}-benzenesulfonamide]	10.2	–
NS(=O)(=O)c1ccc(-n2nc(CCNC(=O)Nc3cccc(C(F)(F)F)c3)cc2-c2ccccc2)cc1 [compound 2313, 4-(5-Phenyl-3-{2-[3-(3-trifluoromethyl-phenyl)-ureido]-ethyl}-pyrazol-1-yl)-benzenesulfonamide]	22.0	–
CS(=O)(=O)c1ccc(-n2nc(CNC(=O)NC3CCCCCC3)cc2-c2ccccc2)cc1 [compound 2321, 1-Cycloheptyl-3-[1-(4-methanesulfonyl-phenyl)-5-phenyl-1H-pyrazol-3-ylmethyl]-urea]	3.4	–
CS(=O)(=O)c1ccc(-n2nc(CNC(=O)Nc3ccc(OC(F)(F)F)cc3)cc2-c2ccccc2)cc1 [compound 2323, 1-[1-(4-Methanesulfonyl-phenyl)-5-phenyl-1H-pyrazol-3-ylmethyl]-3-(4-trifluoromethoxy-phenyl)-urea]	10.4	–
CS(=O)(=O)c1ccc(-n2nc(CNC(=O)Nc3ccc(C(F)(F)F)cc3)cc2-c2ccccc2)cc1 [compound 2324, 1-[1-(4-Methanesulfonyl-phenyl)-5-phenyl-1H-pyrazol-3-ylmethyl]-3-(4-trifluoromethyl-phenyl)-urea]	10.7	–
CC(C)c1cccc(C(C)C)c1NC(=O)NCCCc1cc(-c2ccccc2)n(-c2ccc(S(N)(=O)=O)cc2)n1 [compound 2325, 4-(3-{3-[3-(2,6-Diisopropyl-phenyl)-ureido]-propyl}-5-phenyl-pyrazol-1-yl)-benzenesulfonamide]	6.2	–
NS(=O)(=O)c1ccc(-n2nc(CCCNC(=O)NC34CC5CC(CC(C5)C3)C4)cc2-c2ccccc2)cc1 [compound 2326, 4-{3-[3-(3-Adamantan-1-yl-ureido)-propyl]-5-phenyl-pyrazol-1-yl}-benzenesulfonamide]	6.7	–
NS(=O)(=O)c1ccc(-n2nc(CCCNC(=O)Nc3ccc(Cl)cc3)cc2-c2ccccc2)cc1 [compound 2327, 4-(3-{3-[3-(4-Chloro-phenyl)-ureido]-propyl}-5-phenyl-pyrazol-1-yl)-benzenesulfonamide]	15.2	–
NS(=O)(=O)c1ccc(-n2nc(CCCNC(=O)Nc3ccc(OC(F)(F)F)cc3)cc2-c2ccccc2)cc1 [compound 2329, 4-(5-Phenyl-3-{3-[3-(4-trifluoromethoxy-phenyl)-ureido]-propyl}-pyrazol-1-yl)-benzenesulfonamide]	13.8	–
Nc1ccn([C@@H]2O[C@H](CO)[C@@H](O)C2(F)F)c(=O)n1 [gemcitabine]	–	tumor growth [3]: resistant
COc1ccc2c(c1)c(CC(=O)O)c(C)n2C(=O)c1ccc(Cl)cc1 [indomethacin]	–	COX-2 (IC50)/COX-1 (IC50) ratio [1]: 33
O=C(NC12CC3CC(CC(C3)C1)C2)N[C@H]1CC[C@H](Oc2ccc(C(=O)O)cc2)CC1 [t-AUCB, trans-4-[4-(3-Adamantan-1-yl-ureido)-cyclohexyloxy]-benzoic acid]	–	potentiation of cisplatin with respect to inhibiting tumor growth ([3]; combined with cisplatin 2 mg/kg): moderate additive effect
